Results reported in paper PMC9080521, “Molecular basis of rutin inhibition of protein disulfide isomerase (PDI) by combined in silico and experimental methods” (RSC Advances, 2018).

Columns and labels:
full-length human PDI = full-length human PDI (Homo sapiens, UniProt P07237); test: Insulin reduction assay; format: biochemical; settings: compound 100 μM; for turbidity (OD650), raw kinetic read at 1:40:32: 1.5 μM protein, last read (100 min), PDI alone 1.125
Experimental: (§1) The insulin reduction assay was performed to assess the enzymatic activity of PDI and its MBP-fused recombinant proteins. PDI can reduce insulin in the presence of dithiothreitol (DTT) along with increase in turbidity of the reaction mixture. We thus monitored spectrophotometrically the aggregation of reduced insulin through the increase of turbidity. The reductase activity was measured in 100 μL in presence of 600 μM insulin, 1.5 μM PDI and recombinant PDI proteins, 1 mM DTT, and with protein buffer (pH 7.4), at room temperature over 100 min by absorption at 650 nm. For inhibition assay, 100 μM of rutin, kaempferitrin, tiliroside and 2′-O-galloylhyperin or control buffer was added to the reaction system.

wt MBP-PDI-b′xa′ = molecular target: T1, wt MBP-PDI-b′xa′ (Homo sapiens, UniProt P07237); test: Insulin reduction assay; format: biochemical; settings: compound 100 μM, 1.5 μM protein, last read (100 min); WT alone 0.829
T1 construct: MBP-PDI-b′xa′(235–479); His-tag; made in house; host or cells: E. coli BL21 (DE3)
Experimental: as §1
We further used the insulin reduction assay to measure the reductase activities of these site-directed MBP-PDI-b′xa′ mutants. This assay has typically good reproducibility as shown by a control experiment with three repetitions (Fig. S7 ^†). We found the PDI mutants maintained reductase activities in the presence of dithiothreitol (DTT). The H354A mutation lowered the reductase activity of wt MBP-PDI-b′xa′ (Fig. 3G) while other mutants had similar reductase activities with that of wt MBP-PDI-b′xa′ (Fig. 3C, F and H–J). Addition of rutin inhibited the reductase activities of both wt MBP-PDI-b′xa′ and the mutants (Fig. 3C and F–J). […] We quantified the inhibition of rutin on these MBP-PDI-b′xa′ mutants by measuring the increase of turbidity (OD650 at 100 min) upon addition of rutin (Fig. 3K).

PDI = system: PDI; design: method as in PMID 21121641; settings: read-out: inhibits PDI at; cited from earlier work
[1] = system: plasma thrombin generation activity; design: method as in PMID 28097231; settings: human, oral administration (1 gram); cited from earlier work

full-length human PDI, sequence (P07237 18-508): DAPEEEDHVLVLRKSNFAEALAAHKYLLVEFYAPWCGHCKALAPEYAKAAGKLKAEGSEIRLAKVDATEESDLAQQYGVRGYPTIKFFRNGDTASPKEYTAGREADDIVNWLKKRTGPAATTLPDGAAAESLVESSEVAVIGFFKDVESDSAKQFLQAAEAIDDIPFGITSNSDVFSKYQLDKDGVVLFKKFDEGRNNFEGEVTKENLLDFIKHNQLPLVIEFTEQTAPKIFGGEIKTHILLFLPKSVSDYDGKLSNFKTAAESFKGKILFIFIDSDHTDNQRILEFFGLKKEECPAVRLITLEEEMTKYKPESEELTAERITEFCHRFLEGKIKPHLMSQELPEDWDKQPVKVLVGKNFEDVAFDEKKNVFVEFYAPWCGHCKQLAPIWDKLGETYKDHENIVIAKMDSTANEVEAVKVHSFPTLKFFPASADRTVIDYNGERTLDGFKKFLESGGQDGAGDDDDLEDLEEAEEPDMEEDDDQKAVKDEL
T1 sequence (P07237 235-479): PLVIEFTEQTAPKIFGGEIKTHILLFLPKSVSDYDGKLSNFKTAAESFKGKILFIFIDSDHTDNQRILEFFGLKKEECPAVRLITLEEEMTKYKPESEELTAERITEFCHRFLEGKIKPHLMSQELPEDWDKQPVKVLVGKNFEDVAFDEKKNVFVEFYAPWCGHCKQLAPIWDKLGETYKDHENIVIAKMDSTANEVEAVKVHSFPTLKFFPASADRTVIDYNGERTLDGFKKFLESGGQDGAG

| turbidity (OD650), raw kinetic read at 1:40:32 (full-length human PDI) | inhibitory activity on reductase activity (full-length human PDI; full-length human PDI) | turbidity (OD650), raw kinetic read at 1:40:32 (wt MBP-PDI-b′xa′) | SMILES | IC50 (PDI) | reduction of plasma thrombin generation activity [1] |
| --- | --- | --- | --- | --- | --- |
| 0.998 | smaller than that of rutin | 0.56 | C[C@@H]1O[C@@H](Oc2cc(O)c3c(=O)c(O[C@@H]4O[C@@H](C)[C@H](O)[C@@H](O)[C@H]4O)c(-c4ccc(O)cc4)oc3c2)[C@H](O)[C@H](O)[C@H]1O [kaempferitrin] | – | – |
| – | – | – | C/C1=C/[C@H](O)C(C)(C)CCC/C(C)=C/C[C@H]1OC(=O)c1ccc(O)cc1 [juniferdin] | 0.156 µM | – |
| – | – | – | O=c1c(O[C@@H]2O[C@H](CO)[C@@H](O)[C@H](O)[C@H]2O)c(-c2ccc(O)c(O)c2)oc2cc(O)cc(O)c12 [isoquercetin] | – | about half |
| 0.925 | – | 0.5 | O=C(/C=C/c1ccc(O)cc1)OC[C@H]1O[C@@H](Oc2c(-c3ccc(O)cc3)oc3cc(O)cc(O)c3c2=O)[C@H](O)[C@@H](O)[C@@H]1O [tiliroside] | – | – |
